# Experimental data from PMC11274128, “Modification and Synergistic Studies of a Novel Frog Antimicrobial Peptide against Pseudomonas aeruginosa Biofilms” (Antibiotics, 2024).
# Where two headings read alike, the source gives them in different places. Bridge positions count the residues as written; N and C are the ends. Peptide text beside a SMILES is read from it.
# Tests used:
# [1] = system: G+ Bacteria; experiment: Geometric mean of MICs and TI value; format: cell-based; details: geometric mean of MICs against tested Gram-positive bacteria
# Description: The therapeutic potential of antimicrobial agents was valued based on their selectivity toward bacteria in reference to erythrocytes. The TI value was calculated from the results of antibacterial and haemolysis experiments of peptides using the following formula:TI value = HC10 / GMMICs.
# GM was the geometric mean of MICs against all tested bacteria.
# [2] = system: A. baumannii BAA 747 biofilm; format: cell-based, Acinetobacter baumannii; details: for MBIC: lowest concentration inhibiting at least 90% of biofilm formation; for MBEC: minimum concentration eradicating at least 99% of the biofilm
# Text: The minimum bactericidal concentration (MBC) is defined as the lowest antibiotic concentration that kills 99.9% of the inoculum. The minimum biofilm inhibitory concentration (MBIC) is the lowest concentration that inhibits at least 90% of the formation of biofilm. The minimum biofilm eradication concentration (MBEC) is the minimum concentration that can eradicate at least 99% of the biofilm. In addition to the eight microorganisms described previously, this experiment was also applied to P. aeruginosa (ATCC 27853, ATCC BAA-2108, P. aeruginosa 01, P. aeruginosa 14).
# [3] = system: A. baumannii BAA 747 biofilm; details: checkerboard MBIC, 24 h, crystal violet, 595 nm
# Description: (§1) Parameter fractional inhibitory concentration indices (FICIs) were used to evaluate the synergistic effect, and the value of that was calculated as follows:FICI = FICa + FICb FICa = MIC combination peptide/MIC single peptide FICb = MIC combination antibiotic/MIC single antibiotic
# (§2) The FICI value was interpreted as “synergy” (FICI ≤ 0.5), “no interaction” (0.5 < FICI ≤ 4), or “antagonism” (FICI > 4).
# (§3) The bacteria were also cultured, subcultured, diluted, and incubated as the methods of the MBIC assay. All experimental groups were included in a peptide and antibiotic co-administration of MIC assay. To ensure that the mixture was evenly dispersed, the plate was placed in a shaker and incubated for 24 h at 37 and 220× g. The plate was twice rinsed with 200 µL of PBS solution following a 24 h incubation period with peptides and diluted bacterial cultures. Each well received a separate addition of 100 μL of methanol and 0.1% crystal violet solution (Sigma-Aldrich, London, UK), which was left there for 20 min. The plate was then carefully cleaned under running water. Following the drying process, each well received 160 µL of acetic acid (33% in dd water, Sigma-Aldrich, UK). Additionally, the absorbance was measured at λ = 595 nm using the Synergy HT plate reader. FICI values were calculated and identified for our peptide and antibiotic co-administration of MIC assay.
# [4] = system: K. pneumoniae ATCC 43816 biofilm; details: checkerboard MBIC, 24 h, crystal violet, 595 nm
# Description: as §1, §2, §3
# [5] = system: MRSA NCTC 12493 biofilm; details: checkerboard MBIC, 24 h, crystal violet, 595 nm
# Description: as §1, §2, §3
# [6] = system: P. aeruginosa 01 biofilm; details: checkerboard MBIC, 24 h, crystal violet, 595 nm
# Description: as §1, §2, §3
# [7] = system: P. aeruginosa 14 biofilm; details: checkerboard MBIC, 24 h, crystal violet, 595 nm
# Description: as §1, §2, §3
# [8] = system: P. aeruginosa ATCC 27853 biofilm; details: checkerboard MBIC, 24 h, crystal violet, 595 nm
# Description: as §1, §2, §3
# [9] = system: P. aeruginosa ATCC BAA-2108 biofilm; details: checkerboard MBIC, 24 h, crystal violet, 595 nm
# Description: as §1, §2, §3
# [10] = system: S. aureus ATCC 6538 biofilm; details: checkerboard MBIC, 24 h, crystal violet, 595 nm
# Description: as §1, §2, §3
# [11] = peptide combined with gentamicin
compound,measurement,setting,value
CC[C@H](C)[C@H](NC(=O)[C@H](CCCCN)NC(=O)[C@H](CCCCN)NC(=O)CNC(=O)[C@H](C)NC(=O)CNC(=O)[C@H](CC(C)C)NC(=O)[C@@H](NC(=O)CNC(=O)[C@H](CO)NC(=O)[C@H](CC(C)C)NC(=O)[C@H](CC(C)C)NC(=O)CN)C(C)C)C(=O)N[C@H](C(=O)N[C@H]1CSSC[C@@H](C(=O)O)NC(=O)[C@H](CCCNC(=N)N)NC(=O)CNC(=O)[C@H](CO)NC(=O)[C@H](CC(C)C)NC(=O)CNC1=O)C(C)C [Nigrosin-6VL] (H-GLLSGVLGAGKKIVCGLSGRC-OH; disulfide 15-21),"GM (geometric mean of MICs), G+ Bacteria",[1],101.59 µM
same,MBIC,[2],>128/>128 µM
same,MBEC,[2],>128/>128 µM
same,Biofilm FICI,[3]; peptide combined with cefepime,0.5
same,Biofilm FICI,[3]; [11],0.5
same,Biofilm FICI,[4]; peptide combined with cefepime,1.25
same,Biofilm FICI,[4]; [11],0.5
same,Biofilm FICI,[5]; peptide combined with cefepime,0.75
same,Biofilm FICI,[5]; [11],0.375
same,Biofilm FICI,[6]; peptide combined with cefepime,0.625
same,Biofilm FICI,[6]; [11],0.625
same,Biofilm FICI,[7]; peptide combined with cefepime,0.25
same,Biofilm FICI,[7]; [11],0.5
same,Biofilm FICI,[8]; peptide combined with cefepime,1
same,Biofilm FICI,[8]; [11],0.25
same,Biofilm FICI,[9]; peptide combined with cefepime,0.625
same,Biofilm FICI,[9]; [11],1
same,Biofilm FICI,[10]; peptide combined with cefepime,1
same,Biofilm FICI,[10]; [11],0.5
CC[C@H](C)[C@H](NC(=O)[C@H](CCCCN)NC(=O)[C@H](CCCCN)NC(=O)CNC(=O)[C@H](C)NC(=O)[C@H](CCCNC(=N)N)NC(=O)[C@H](CC(C)C)NC(=O)[C@@H](NC(=O)[C@H](C)NC(=O)[C@H](CCCNC(=N)N)NC(=O)[C@H](CC(C)C)NC(=O)[C@H](CC(C)C)NC(=O)CN)C(C)C)C(=O)N[C@H](C(=O)N[C@H]1CSSC[C@@H](C(=O)O)NC(=O)[C@H](CCCNC(=N)N)NC(=O)CNC(=O)[C@H](CO)NC(=O)[C@H](CC(C)C)NC(=O)CNC1=O)C(C)C [Peptide 2170-2R] (H-GLLRAVLRAGKKIVCGLSGRC-OH; disulfide 15-21),MBIC,[2],8 µM
same,MBEC,[2],16 µM
same,Biofilm FICI,[3]; peptide combined with cefepime,0.625
same,Biofilm FICI,[3]; [11],0.75
same,Biofilm FICI,[4]; peptide combined with cefepime,3
same,Biofilm FICI,[4]; [11],1.125
same,Biofilm FICI,[5]; peptide combined with cefepime,0.5
same,Biofilm FICI,[5]; [11],1.125
same,Biofilm FICI,[6]; peptide combined with cefepime,0.5
same,Biofilm FICI,[6]; [11],1
same,Biofilm FICI,[7]; peptide combined with cefepime,0.375
same,Biofilm FICI,[7]; [11],1
same,Biofilm FICI,[8]; peptide combined with cefepime,0.5
same,Biofilm FICI,[8]; [11],0.25
same,Biofilm FICI,[9]; peptide combined with cefepime,1
same,Biofilm FICI,[9]; [11],>3
same,Biofilm FICI,[10]; peptide combined with cefepime,1
same,Biofilm FICI,[10]; [11],0.25
